Counter-ions that a name gives are not always drawn.

We go through 21 compounds from patent publication US20100317624A1 (ASTRAZENECA AB, priority 2009, published 2010).

Sequence of S. aureus GyrB ATPase (P0AES4 whole entry): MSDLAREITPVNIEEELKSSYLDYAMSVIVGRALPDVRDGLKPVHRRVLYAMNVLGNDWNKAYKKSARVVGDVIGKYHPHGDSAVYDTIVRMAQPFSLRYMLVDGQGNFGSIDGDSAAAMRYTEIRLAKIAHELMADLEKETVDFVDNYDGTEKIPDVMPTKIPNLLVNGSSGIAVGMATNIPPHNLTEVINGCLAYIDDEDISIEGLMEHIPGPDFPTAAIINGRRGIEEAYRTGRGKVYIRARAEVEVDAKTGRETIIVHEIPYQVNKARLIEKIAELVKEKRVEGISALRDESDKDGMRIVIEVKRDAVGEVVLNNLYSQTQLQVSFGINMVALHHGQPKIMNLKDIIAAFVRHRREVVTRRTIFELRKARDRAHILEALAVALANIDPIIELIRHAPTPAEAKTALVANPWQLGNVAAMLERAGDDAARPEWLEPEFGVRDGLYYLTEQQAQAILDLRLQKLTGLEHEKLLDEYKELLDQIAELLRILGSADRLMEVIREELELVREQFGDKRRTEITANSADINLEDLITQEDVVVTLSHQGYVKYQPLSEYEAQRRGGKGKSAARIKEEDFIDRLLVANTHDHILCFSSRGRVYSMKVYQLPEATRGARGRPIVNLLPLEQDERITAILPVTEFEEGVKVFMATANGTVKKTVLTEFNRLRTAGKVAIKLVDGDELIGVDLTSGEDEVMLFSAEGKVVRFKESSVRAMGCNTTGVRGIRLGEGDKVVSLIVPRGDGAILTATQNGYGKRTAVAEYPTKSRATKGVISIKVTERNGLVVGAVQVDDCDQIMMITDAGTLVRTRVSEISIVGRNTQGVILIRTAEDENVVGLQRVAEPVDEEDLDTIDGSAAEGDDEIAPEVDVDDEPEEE
Sequence of S. aureus GyrB ATPase (P0A0K8 whole entry): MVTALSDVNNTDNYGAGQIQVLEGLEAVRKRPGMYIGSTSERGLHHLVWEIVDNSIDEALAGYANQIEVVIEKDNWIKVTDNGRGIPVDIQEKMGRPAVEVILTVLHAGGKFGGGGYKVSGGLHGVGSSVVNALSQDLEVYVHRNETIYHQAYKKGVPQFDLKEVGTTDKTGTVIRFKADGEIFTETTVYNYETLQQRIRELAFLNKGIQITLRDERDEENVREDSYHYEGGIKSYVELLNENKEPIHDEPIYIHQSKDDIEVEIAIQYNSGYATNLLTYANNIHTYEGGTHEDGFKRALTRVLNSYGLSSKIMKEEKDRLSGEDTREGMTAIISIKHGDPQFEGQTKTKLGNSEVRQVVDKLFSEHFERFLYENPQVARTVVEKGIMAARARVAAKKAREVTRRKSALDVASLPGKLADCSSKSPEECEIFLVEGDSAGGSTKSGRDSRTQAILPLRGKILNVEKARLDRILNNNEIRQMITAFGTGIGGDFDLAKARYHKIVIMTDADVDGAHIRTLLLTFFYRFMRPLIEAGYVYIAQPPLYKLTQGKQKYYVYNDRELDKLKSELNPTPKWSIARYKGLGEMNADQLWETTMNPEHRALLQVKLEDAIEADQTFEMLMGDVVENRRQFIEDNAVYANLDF

This assay deals with S. aureus GyrB ATPase (Staphylococcus aureus, UniProt P0A0K8). Kind of assay: S. aureus GyrB ATPase inhibition (ammonium molybdate/malachite green phosphate detection). In kind it is biochemical. The following applies: compound at 1 μM; inhibition of S. aureus GyrB ATPase; read-out: Percent Inhibition (1 μM). The procedure:
S. aureus GyrB ATPase Inhibition Activity: Compounds may be tested for inhibition of S. aureus GyrB ATPase activity using an ammonium molybdate/malachite green-based phosphate detection assay (Lanzetta, P. A., L. J. Alvarez, P. S. Reinach, and O. A. Candia, 1979, 100: 95-97). Assays can be performed in multiwell plates in 30 μl reactions containing: 50 mM Hepes buffer pH 7.5, 75 mM ammonium acetate, 8.0 mM magnesium chloride, 0.5 mM ethylenediaminetetraacetic acid, 5% glycerol, 1.0 mM 1,4-Dithio-DL-threitol, 200 nM bovine serum albumin, 1.0 μg/ml sheared salmon sperm DNA, 250 pM E. coli GyrA, 250 pM S. aureus GyrB, 250 μM ATP, and compound in dimethylsulfoxide. Reactions can be quenched with 30 μl of ammonium molybdate/malachite green detection reagent containing 1.2 mM malachite green hydrochloride, 8.5 mM ammonium molybdate tetrahydrate, and 1 M hydrochloric acid. Plates can be read in an absorbance plate reader at 650 nm and percent inhibition values can be calculated using dimethylsulfoxide (2%)-containing reactions as 0% inhibition and EDTA-containing ([…]) reactions as 100% inhibition controls. An IC50 measurement of compound potency for each compound can be determined from reactions performed in the presence of 10 different compound concentrations.
For `CCNC(=O)Nc1cc(-c2nc(C(F)(F)F)cs2)c(-c2ccc3c(c2)c(=O)c(C(=O)O)cn3[C@H](COP(=O)(O)O)C(C)(C)C)cn1` [Example 3, (S)-1-(3,3-dimethyl-1-(phosphonooxy)butan-2-yl)-6-(6-(3-ethylureido)-4-(4-(trifluoromethyl)thiazol-2-yl)pyridin-3-yl)-4-oxo-1,4-dihydroquinoline-3-carboxylic acid], the inhibition – broadly, the change of the read-out against control, counted positive when it falls – at 1 µM was determined as 108%.

Turning to `CCNC(=O)Nc1cc(-c2nc(C(F)(F)F)cs2)c(-c2ccc3c(c2)c(=O)c(C(=O)O)cn3[C@@H](CC)COP(=O)(O)O)cn1` [Example 5, (S)-6-(6-(3-ethylureido)-4-(4-(trifluoromethyl)thiazol-2-yl)pyridin-3-yl)-4-oxo-1-(1-(phosphonooxy)butan-2-yl)-1,4-dihydroquinoline-3-carboxylic acid], the inhibition at 1 µM worked out at 120%. Regarding `CCNC(=O)Nc1cc(-c2nc(C(F)(F)F)cs2)c(-c2ccc3c(c2)c(=O)c(C(=O)O)cn3[C@H](CC)COP(=O)(O)O)cn1` [Example 6, (R)-6-(6-(3-ethylureido)-4-(4-(trifluoromethyl)thiazol-2-yl)pyridin-3-yl)-4-oxo-1-(1-(phosphonooxy)butan-2-yl)-1,4-dihydroquinoline-3-carboxylic acid], the inhibition at 1 µM turned out to be 96%. As to `CCNC(=O)Nc1cc(-c2nc(C(F)(F)F)cs2)c(-c2ccc3c(c2)c(=O)c(C(=O)O)cn3[C@H](COP(=O)(O)O)CC(C)C)cn1` [Example 7, (5)-6-(6-(3-ethylureido)-4-(4-(trifluoromethyl)thiazol-2-yl)pyridin-3-yl)-1-(4-methyl-1-(phosphonooxy)pentan-2-yl)-4-oxo-1,4-dihydroquinoline-3-carboxylic acid], the inhibition at 1 µM stood at 111%. In the case of `CCNC(=O)Nc1cc(-c2nc(C(F)(F)F)cs2)c(-c2ccc3c(c2)c(=O)c(C(=O)NCCOP(=O)(O)O)cn3C(COC)COC)cn1` [Example 8, 2-(1-(1,3-dimethoxypropan-2-yl)-6-(6-(3-ethylureido)-4-(4-(trifluoromethyl)thiazol-2-yl)pyridin-3-yl)-4-oxo-1,4-dihydroquinoline-3-carboxamido)ethyl dihydrogen phosphate hydrochloride] it was 108%; in that of `CCNC(=O)Nc1cc(-c2nc(C(F)(F)F)cs2)c(-c2ccc3c(c2)c(=O)c(C(=O)NCCOP(=O)(O)O)cn3C2CC2)cn1` [Example 9, 2-(1-cyclopropyl-6-(6-(3-ethylureido)-4-(4-(trifluoromethyl)thiazol-2-yl)pyridin-3-yl)-4-oxo-1,4-dihydroquinoline-3-carboxamido)ethyl dihydrogen phosphate hydrochloride], 103%.

On to `CCNC(=O)Nc1cc(-c2nc(C(F)(F)F)cs2)c(-c2ccc3c(c2)c(=O)c(C(=O)NCCCOP(=O)(O)O)cn3C(COC)COC)cn1` [Example 10, 3-(1-(1,3-dimethoxypropan-2-y1)-6-(6-(3-ethylureido)-4-(4-(trifluoromethyl)thiazol-2-yl)pyridin-3-yl)-4-oxo-1,4-dihydroquinoline-3-carboxamido)propyl dihydrogen phosphate hydrochloride], for which the inhibition at 1 µM was 12%. For the compound `CCNC(=O)Nc1cc(-c2nc(C(F)(F)F)cs2)c(-c2ccc3c(c2)c(=O)c(C(=O)NCCCOP(=O)(O)O)cn3C2CC2)cn1` [Example 11, 3-(1-cyclopropyl-6-(6-(3-ethylureido)-4-(4-(trifluoromethyl)thiazol-2-yl)pyridin-3-yl)-4-oxo-1,4-dihydroquinoline-3-carboxamido)propyl dihydrogen phosphate hydrochloride], the inhibition at 1 µM was found to be 108%. As for `CCNC(=O)Nc1cc(-c2nc(C3CC3)cs2)c(-c2ccc3c(c2)c(=O)c(C(=O)O)cn3[C@H](COP(=O)(O)O)CC(C)C)cn1` [Example 12, (S)-6-(4-(4-cyclopropylthiazol-2-yl)-6-(3-ethylureido)pyridin-3-yl)-1-(4-methyl-1-(phosphonooxy)pentan-2-yl)-4-oxo-1,4-dihydroquinoline-3-carboxylic acid], the figure is 104%. As for `CCNC(=O)Nc1cc(-c2nc(C(F)(F)F)cs2)c(-c2ccc3c(=O)c(C(=O)NCCCOP(=O)(O)O)cn(Cc4noc(C)n4)c3c2)cn1` [Example 13, 3-{[(7-{6[(ethylcarbamoyl)amino]-4-[4-(trifluoromethyl)-1,3-thiazol-2-yl]pyridin-3-yl}-1-[(5-methyl-1,2,4-oxadiazol-3-yl)methyl]-4-oxo-1,4-dihydroquinolin-3-yl)carbonyl]amino}propyl dihydrogen phosphate], the inhibition at 1 µM is 99%. On to `CCNC(=O)Nc1cc(-c2nc(C(F)(F)F)cs2)c(-c2ccc3c(=O)c(C(=O)NCCCOP(=O)(O)O)cn(CC)c3c2)cn1` [Example 14, 3-{[(1-ethyl-7-{6-[(ethylcarbamoyl)amino]-4-[4-(trifluoromethyl)-1,3-thiazol-2-yl]pyridin-3-yl}-4-oxo-1,4-dihydroquinolin-3-yl)carbonyl]amino}propyl dihydrogen phosphate], for which the inhibition at 1 µM came out at 97%. As for `CCNC(=O)Nc1cc(-c2nc(C(F)(F)F)cs2)c(-c2ccc3c(=O)c(C(=O)NCCCOP(=O)(O)O)cn(CC4CC4)c3c2)cn1` [Example 15, phosphate hydrochloride], the figure is 76%; as for `CCNC(=O)Nc1cc(-c2nc(C(F)(F)F)cs2)c(-c2ccc3c(=O)c(C(=O)NCCCOP(=O)(O)O)cn(CCC(C)C)c3c2)cn1` [Example 16, 3-({[7-{6-[(ethylcarbamoyl)amino]-4-[4-(trifluoromethyl)-1,3-thiazol-2-yl]pyridin-3-yl}-1-(3-methylbutyl)-4-oxo-1,4-dihydroquinolin-3-yl]carbonyl}amino)propyl dihydrogen phosphate], 100%. For `CCCn1cc(C(=O)NCCCOP(=O)(O)O)c(=O)c2ccc(-c3cnc(NC(=O)NCC)cc3-c3nc(C(F)(F)F)cs3)cc21` [Example 17, 3-{[(7-{6-[(ethylcarbamoyl)amino]-4-[4-(trifluoromethyl)-1,3-thiazol-2-yl]pyridin-3-yl}-4-oxo-1-propyl-1,4-dihydroquinolin-3-yl)carbonyl]amino}propyl dihydrogen phosphate], the inhibition at 1 µM amounted to 100%. For the compound `CCNC(=O)Nc1cc(-c2nc(C(F)(F)F)cs2)c(-c2ccc3c(c2)c(=O)c(C(=O)OCCOP(=O)(O)O)cn3C2CC2)cn1` [Example 18, 2-(phosphonooxy)ethyl 1-cyclopropyl-6-(6-(3-ethylureido)-4-(4-(trifluoromethyl)thiazol-2-yl)pyridin-3-yl)-4-oxo-1,4-dihydroquinoline-3-carboxylate hydrochloride], the inhibition at 1 µM was 104%. `CCNC(=O)Nc1cc(-c2nc(C(F)(F)F)cs2)c(-c2ccc3c(c2)c(=O)c(C(=O)OCCOP(=O)(O)O)cn3C(COC)COC)cn1` [Example 19, 2-(phosphonooxy)ethyl 1-(1,3-dimethoxypropan-2-yl)-6-(6-(3-ethylureido)-4-(4-(trifluoromethyl)thiazol-2-yl)pyridin-3-yl)-4-oxo-1,4-dihydroquinoline-3-carboxylate]: the inhibition at 1 µM came out at 110%. Consider `CCNC(=O)Nc1cc(-c2nc(C(F)(F)F)cs2)c(-c2cc3c(=O)c(C(=O)O)cn(CCN(C)C)c3cc2F)cn1` [Example 20, 1-(2-(dimethylamino)ethyl)-6-(6-(3-ethylureido)-4-(4-(trifluoromethyl)thiazol-2-yl)pyridin-3-yl)-7-fluoro-4-oxo-1,4-dihydroquinoline-3-carboxylic acid], for which the inhibition at 1 µM worked out at 106%. In the case of `CCNC(=O)Nc1cc(-c2nc(C(F)(F)F)cs2)c(-c2cc3c(=O)c(C(=O)O)cn(CC)c3cc2N2CCN(C)CC2)cn1` [Example 22, 1-ethyl-6-(6-(3-ethylureido)-4-(4-(trifluoromethyl)thiazol-2-yl)pyridin-3-yl)-7-(4-methylpiperazin-1-yl)-4-oxo-1,4-dihydroquinoline-3-carboxylic acid] it was 103%; in that of `CCNC(=O)Nc1cc(-c2nc(-c3ccccc3)cs2)c(-c2cc3c(=O)c(C(=O)O)cn(C[C@@H]4CCCN4CC)c3cc2OCCN(C)C)cn1` [Example 23, 7-(2-(dimethylamino)ethoxy)-1-(((S)-1-ethylpyrrolidin-2-yl)methyl)-6-(6-(3-ethylureido)-4-(4-phenylthiazol-2-yl)pyridin-3-yl)-4-oxo-1,4-dihydroquinoline-3-carboxylic acid], 100%. In the case of `CCNC(=O)Nc1cc(-c2nc(-c3ccccc3)cs2)c(-c2cc3c(=O)c(C(=O)O)cn(CCN(C)C)c3cc2OCCN(C)C)cn1` [Example 24, 7-(2-(dimethylamino)ethoxy)-1-(2-(dimethylamino)ethyl)-6-(6-(3-ethylureido)-4-(4-phenylthiazol-2-yl)pyridin-3-yl)-4-oxo-1,4-dihydroquinoline-3-carboxylic acid] it was 107%. Regarding `CCNC(=O)Nc1cc(-c2nc(C(F)(F)F)cs2)c(-c2cc3c(=O)c(C(=O)O)cn(C[C@@H]4CCCN4CC)c3cc2OCCN(C)C)cn1` [Example 25, 7-(2-(dimethylamino)ethoxy)-1-(((S)-1-ethylpyrrolidin-2-yl)methyl)-6-(6-(3-ethylureido)-4-(4-(trifluoromethyl)thiazol-2-yl)pyridin-3-yl)-4-oxo-1,4-dihydroquinoline-3-carboxylic acid], the inhibition at 1 µM was found to be 98%.
